Data as given in patent US12403150B2, “Tryptamine compositions for enhancing neurite outgrowth” (priority 2019, dated 2025).
“Also recorded” adds a separate entry of the source. Like-named read-outs stand apart in the source and are kept apart here.

B1: BDNF: brain-derived neurotrophic factor, positive control at 50 ng/ml (protein, UniProt P23560 19-247, looked up)
Neurotrophic factor BDNF …: APMKEANIRGQGGLAYPGVRTHGTLESVNGPKAGSRGLTSLADTFEHVIEELLDEDQKVRPNEENNKDADLYTSRVMLSSQVPLEPPLLFLLEEYKNYLDAANMSMRVRRHSDPARRGELSVCDSISEWVTAADKKTAVDMSGGTVTVLEKVPVSKGQLKQYFYETKCNPMGYTKEGCRGIDKRHWNSQCRTTQSYVRALTMDSKKRIGWRFIRIDTSCVCTLTIKRGR

Experiments:
5-HT2A receptor = 5-HT2A receptor (Homo sapiens, UniProt P28223); settings: cited from earlier work
[1] = tested on: inflammation in the lungs; settings: in vivo; cited from earlier work
[2] = tested on: Rat Induced Pluripotent Stem Cell (iPSC) Neuron Culture / cortical neurons from rat embryo; assay type: cell-based; settings: for Neurite length per neuron, % of control, Avg. / Neurite length per neuron, Length (μm), Avg. / Neurites per neuron, % of control, Avg. / Neurites per neuron, Number, Avg.: day 10
Experimental: Experiments were conducted to evaluate the neurotrophic effects of several purified tryptamines, H. erinaceum extracts, and the tryptamines combined with selected extracts of H. erinaceum. The tryptamines, baeocystin, norbaeocystin, and norpsilocin, were evaluated at final concentrations of 0.3 μg/mL, 1 μg/mL, 3 μg/mL, and 10 μg/mL. The experiments analyzed the H. erinaceum growth medium (rice or rice and oat hull fiber), the days of cultivation, the extract solvent (water, ethanol, or ethyl acetate), and the final concentration of the extract (31.3 μg/mL, 62.5 μg/mL, 125 μg/mL or 250 μg/mL). Finally, combinations of the three tryptamines and representative H. erinaceum extracts were combined and evaluated.
Rat Induced Pluripotent Stem Cell (iPSC) Neuron Culture
The following protocol was performed for each independent culture. Six culture experiments were performed for each condition.
Results are expressed as mean (±Standard Deviation).

[3] = tested on: PC12 cells treated with conditioned media from 1321N1 cells; assay: Neurite outgrowth of PC12 cells treated with conditioned media from 1321N1 cells; assay type: cell-based, rat; settings: conditioned media from treated 1321N1 human astrocytoma cells; n=3
Excerpt: 1321N1 human brain astrocytoma cells are known to excrete neurologically beneficial compounds when stimulated with neurotrophic compounds and fungal extracts including lion's mane (Mori et al., Biological and Pharmaceutical Bulletin, 9:1727-1732 (2008)). While some fungi have well established mechanisms by which they benefit neurological health, little is known about the role of psilocybin analogs specifically. Generally following the protocol of Mori et al., 2008, 1321N1 human astrocytoma cells were treated with psilocybin analogs, and conditioned media was collected and applied to differentiated rat pheochromocytoma PC12 cells to determine the resulting impact on neurite outgrowth.

hallucinogenic effects = settings: cited from earlier work
[4] = tested on: nerve growth factor (NGF) protein; assay: ELISA of NGF protein in human 1321N1 brain cells; assay type: cell-based; settings: human 1321N1 cells, compared to a vehicle control; n=3; p<0.05
Excerpt: Accordingly, preliminary research has started to reveal the mechanisms by which psilocybin analogs may confer neurotrophic benefits that facilitate neurite outgrowth.
(§1) See Ly et al., “Psychedelics Promote Structural and Functional Neural Plasticity,” Cell Rep.

IL-10 = assay: ELISA of IL-10 in human 1321N1 brain cells; assay type: cell-based
Excerpt: as §1

5-HT2A receptor, sequence (P28223 whole entry): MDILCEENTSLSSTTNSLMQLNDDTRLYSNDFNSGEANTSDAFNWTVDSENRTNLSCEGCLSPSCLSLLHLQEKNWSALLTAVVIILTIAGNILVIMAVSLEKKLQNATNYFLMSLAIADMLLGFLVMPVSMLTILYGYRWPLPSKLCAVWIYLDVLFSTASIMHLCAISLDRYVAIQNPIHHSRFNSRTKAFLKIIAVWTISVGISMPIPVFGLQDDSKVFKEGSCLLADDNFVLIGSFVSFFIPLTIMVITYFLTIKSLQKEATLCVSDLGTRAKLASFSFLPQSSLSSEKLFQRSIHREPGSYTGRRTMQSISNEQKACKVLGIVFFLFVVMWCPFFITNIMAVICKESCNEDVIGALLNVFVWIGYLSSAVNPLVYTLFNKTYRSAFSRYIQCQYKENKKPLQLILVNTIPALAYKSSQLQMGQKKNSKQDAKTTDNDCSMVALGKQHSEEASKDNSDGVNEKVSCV

Row | Molecule | Neurite length per neuron, % of control, Avg. ([2]; tryptamine 0.3 μg/mL) | Neurite length per neuron, Length (μm), Avg. ([2]; tryptamine 0.3 μg/mL) | Neurites per neuron, % of control, Avg. ([2]; tryptamine 0.3 μg/mL) | Neurites per neuron, Number, Avg. ([2]; tryptamine 0.3 μg/mL) | Neurite length per neuron, % of control, Avg. ([2]; tryptamine 1 μg/mL) | Neurite length per neuron, Length (μm), Avg. ([2]; tryptamine 1 μg/mL) | Neurites per neuron, % of control, Avg. ([2]; tryptamine 1 μg/mL) | Neurites per neuron, Number, Avg. ([2]; tryptamine 1 μg/mL) | Neurite length per neuron, % of control, Avg. ([2]; tryptamine 3 μg/mL) | Neurite length per neuron, Length (μm), Avg. ([2]; tryptamine 3 μg/mL) | Neurites per neuron, % of control, Avg. ([2]; tryptamine 3 μg/mL) | Neurites per neuron, Number, Avg. ([2]; tryptamine 3 μg/mL) | Neurite length per neuron, % of control, Avg. ([2]; tryptamine 10 μg/mL) | Neurite length per neuron, Length (μm), Avg. ([2]; tryptamine 10 μg/mL) | Neurites per neuron, % of control, Avg. ([2]; tryptamine 10 μg/mL) | Neurites per neuron, Number, Avg. ([2]; tryptamine 10 μg/mL) | neurite outgrowth in PC12 cells by conditioned media [3] | also measured
1 | COc1cc(C[C@@H](C)N)c(OC)cc1I [(R)-2,5-dimethoxy-4-iodoamphetamine] | – | – | – | – | – | – | – | – | – | – | – | – | – | – | – | – | – | activation of the 5-HT2A receptor (5-HT2A receptor): activate the 5-HT2A receptor; inflammation in the lungs [1]: prevent and reverse inflammation in the lungs
2 | CNCCc1c[nH]c2cccc(OP(=O)(O)O)c12 [baeocystin, 4-phosphoryloxy-N-methyltryptamine] | 119.24 % of control | 418.30 μm | 94.46 % of control | 2.99 | 112.34 % of control | 394.11 μm | 93.66 % of control | 2.96 | 118.42 % of control | 415.42 μm | 97.18 % of control | 3.07 | 109.61 % of control | 384.52 μm | 96.87 % of control | 3.06 | induce neurite outgrowth | hallucinogenic effects after consumption (hallucinogenic effects; 4 mg, anecdotal experience): gentle hallucinogenic experience; hallucinogenic effects after oral consumption (hallucinogenic effects; 10 mg and 20 mg, case studies): did not produce any hallucinogenic effects
3 | NCCc1c[nH]c2cccc(OP(=O)(O)O)c12 [norbaeocystin, 4-phosphoryloxy-tryptamine] | 128.69 % of control | 441.86 μm | 92.67 % of control | 3.09 | 127.25 % of control | 436.93 μm | 91.64 % of control | 3.06 | 112.13 % of control | 385.00 μm | 87.02 % of control | 2.90 | 112.67 % of control | 386.86 μm | 92.01 % of control | 3.07 | induce neurite outgrowth | expression of NGF protein [4]: increased expression of NGF protein; also recorded: induces the expression
4 | CNCCc1c[nH]c2cccc(O)c12 [norpsilocin, 4-hydroxy-N-methyl-tryptamine] | 107.70 % of control | 344.09 μm | 83.77 % of control | 2.80 | 101.13 % of control | 347.25 μm | 87.18 % of control | 2.91 | 73.80 % of control | 253.40 μm | 79.36 % of control | 2.65 | 7.65 % of control | 26.28 μm | 27.71 % of control | 0.92 | induce neurite outgrowth | neurite outgrowth compared with vehicle control and other treatments, in words ([2]; at the concentrations tested): did not perform better than vehicle control; expression of the anti-inflammatory cytokine IL-10 (IL-10): induces the expression
5 | B1 | – | – | – | – | – | – | – | – | – | – | – | – | – | – | – | – | – | Neurites per neuron, Number, Avg. ([2]; 50 ng/ml, positive control, one value per culture plate): 3.82
